Results reported in patent US7598245B2 (Vertex Pharmaceuticals Incorporated, priority 2003, dated 2009).

What was measured:
[1] = target: GSK-3β (AA 1-420) (Homo sapiens, UniProt P49841); test: Inhibition of GSK-3, coupled enzyme system; format: biochemical; settings: 20 μM ATP, 30° C.
Description: Compounds are screened for their ability to inhibit GSK-3β (AA 1-420) activity using a standard coupled enzyme system [Fox et al. Protein Sci. 1998, 7, 2249]. Reactions are carried out in a solution containing 100 mM HEPES (pH 7.5), 10 mM MgCl2, 25 mM NaCl, 300 μM NADH, 1 mM DTT and 1.5% DMSO. Final substrate concentrations in the assay are 20 μM ATP (Sigma Chemicals, St Louis, Mo.) and 300 μM peptide (American Peptide, Sunnyvale, Calif.). Reactions are carried out at 30° C. and 20 nM GSK-3β. Final concentrations of the components of the coupled enzyme system are 2.5 mM phosphoenolpyruvate, 300 μM NADH, 30 μg/ml pyruvate kinase and 10 μg/ml lactate dehydrogenase.
An assay stock buffer solution is prepared containing all of the reagents listed above with the exception of ATP and the test compound of interest. The assay stock buffer solution (175 μl) is incubated in a 96 well plate with 5 μl of the test compound of interest at final concentrations spanning 0.002 μM to 30 μM at 30° C. for 10 min. Typically, a 12 point titration is conducted by preparing serial dilutions (from 10 mM compound stocks) with DMSO of the test compounds in daughter plates. The reaction is initiated by the addition of 20 μl of ATP (final concentration 20 μM). Rates of reaction are obtained using a Molecular Devices Spectramax plate reader (Sunnyvale, Calif.) over 10 min at 30° C. The Ki values are determined from the rate data as a function of inhibitor concentration.

[2] = target: T1, FLT-3 (Homo sapiens, UniProt P36888); test: Inhibition of FLT-3, radiometric filter-binding assay; format: biochemical; settings: 90 μM ATP, pE4Y substrate; read-out: Ki values (FLT-3)
T1 construct: 0.02% BSA and 3 nM FLT-3
T1 sequence (P36888 27-993): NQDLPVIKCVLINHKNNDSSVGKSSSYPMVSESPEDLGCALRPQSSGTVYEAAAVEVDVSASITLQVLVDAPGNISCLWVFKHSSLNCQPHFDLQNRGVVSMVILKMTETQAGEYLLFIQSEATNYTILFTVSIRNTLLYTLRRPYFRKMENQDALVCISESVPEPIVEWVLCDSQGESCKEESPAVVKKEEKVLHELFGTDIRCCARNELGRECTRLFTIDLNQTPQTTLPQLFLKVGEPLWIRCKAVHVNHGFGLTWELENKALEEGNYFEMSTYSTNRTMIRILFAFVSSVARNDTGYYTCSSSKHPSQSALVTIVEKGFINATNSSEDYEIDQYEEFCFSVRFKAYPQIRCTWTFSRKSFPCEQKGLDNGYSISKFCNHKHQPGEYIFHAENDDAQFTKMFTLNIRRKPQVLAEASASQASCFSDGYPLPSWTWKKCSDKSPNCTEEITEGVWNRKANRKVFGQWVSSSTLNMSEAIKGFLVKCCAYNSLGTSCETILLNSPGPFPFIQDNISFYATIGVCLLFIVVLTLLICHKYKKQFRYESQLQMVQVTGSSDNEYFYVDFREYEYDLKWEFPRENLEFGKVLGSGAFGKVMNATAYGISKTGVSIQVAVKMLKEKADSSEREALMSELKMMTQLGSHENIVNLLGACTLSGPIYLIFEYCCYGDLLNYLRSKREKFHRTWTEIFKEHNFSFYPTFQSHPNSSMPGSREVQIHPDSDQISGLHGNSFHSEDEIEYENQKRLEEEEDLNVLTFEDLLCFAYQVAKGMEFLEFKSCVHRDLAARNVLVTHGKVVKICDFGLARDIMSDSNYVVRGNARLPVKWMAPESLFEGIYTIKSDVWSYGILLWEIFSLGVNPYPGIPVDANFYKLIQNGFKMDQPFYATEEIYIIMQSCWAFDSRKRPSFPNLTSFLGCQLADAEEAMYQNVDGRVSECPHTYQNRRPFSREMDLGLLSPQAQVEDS
Description: Compounds were screened for their ability to inhibit FLT-3 activity using a radiometric filter-binding assay. This assay monitors the ^33P incorporation into a substrate poly(Glu, Tyr) 4:1 (pE4Y). Reactions were carried out in a solution containing 100 mM HEPES (pH 7.5), 10 mM MgCl2, 25 mM NaCl, 1 mM DTT, 0.01% BSA and 2.5% DMSO. Final substrate concentrations in the assay were 90 μM ATP and 0.5 mg/mL pE4Y (both from Sigma Chemicals, St Louis, Mo.). The final concentration of compounds is generally between 0.01 and 5 μM. Typically, a 12-point titration was conducted by preparing serial dilutions from 10 mM DMSO stock of test compound. Reactions were carried out at room temperature.
Two assay solutions were prepared. Solution 1 contains 100 mM HEPES (pH 7.5), 10 mM MgCl2, 25 mM NaCl, 1 mg/ml pE4Y and 180 μM ATP (containing 0.3 μCi of [γ-^33P]ATP for each reaction). Solution 2 contains 100 mM HEPES (pH 7.5), 10 mM MgCl2, 25 mM NaCl, 2 mM DTT, 0.02% BSA and 3 nM FLT-3. The assay was run on a 96 well plate by mixing 50 μL each of Solution1 and 2.5 mL of the test compounds. The reaction was initiated with Solution2. After incubation for 20 minutes at room temperature, the reaction was stopped with 50 μL of 20% TCA containing 0.4 mM of ATP. All of the reaction volume was then transferred to a filter plate and washed with 5% TCA by a Harvester9600 from TOMTEC (Hamden, Conn.). The amount of ^33P incorporation into pE4y was analyzed by a Packard TopCount Microplate Scintillation Counter (Meriden, Conn.). The data was fitted using Prism software to get an IC50 or Ki.

GSK-3β (AA 1-420), sequence (P49841 whole entry, the tested form may be a part): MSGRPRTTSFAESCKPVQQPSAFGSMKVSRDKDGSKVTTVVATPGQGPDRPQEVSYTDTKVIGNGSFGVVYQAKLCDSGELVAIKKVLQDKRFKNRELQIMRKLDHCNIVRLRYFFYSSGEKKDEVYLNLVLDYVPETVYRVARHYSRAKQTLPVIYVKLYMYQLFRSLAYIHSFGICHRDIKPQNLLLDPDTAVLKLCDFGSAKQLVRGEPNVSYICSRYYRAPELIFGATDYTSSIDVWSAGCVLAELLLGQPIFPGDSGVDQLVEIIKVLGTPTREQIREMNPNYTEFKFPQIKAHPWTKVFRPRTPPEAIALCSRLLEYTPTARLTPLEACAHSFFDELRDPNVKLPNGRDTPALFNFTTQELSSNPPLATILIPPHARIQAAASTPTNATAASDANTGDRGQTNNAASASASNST

Compound	Ki [1]	Ki [2]
CC(C)C(=O)N1CCCN(c2cc(-n3cnc(Nc4ccccc4)n3)ccn2)CC1 [Compound I-69]	> 1000 nM	30 to 200 nM
COCC(=O)N1CCCN(c2cc(-n3cnc(Nc4ccccc4)n3)ccn2)CC1 [Compound I-71]	> 1000 nM	30 to 200 nM
N#CCC(=O)N1CCCN(c2cc(-n3cnc(Nc4ccccc4)n3)ccn2)CC1 [Compound I-72]	> 1000 nM	< 60 nM
c1ccc(Nc2ncn(-c3ccnc(N4CCCCCC4)c3)n2)cc1 [Compound I-73]	500 to 1000 nM	< 60 nM
CC(=O)N1[C@H](C)CN(c2cc(-n3cnc(Nc4ccccc4)n3)ccn2)C[C@@H]1C [Compound I-74]	> 1000 nM	< 60 nM
CCOC(=O)c1ccc(Nc2ncn(-c3ccnc(N4C[C@@H](C)N(C(C)=O)[C@@H](C)C4)c3)n2)cc1 [Compound I-75]	> 1000 nM	30 to 200 nM
CCOC(=O)c1ccc(Nc2ncn(-c3ccnc(N4CCCN(C(C)=O)CC4)c3)n2)cc1 [Compound I-76]	> 1000 nM	30 to 200 nM
CC(=O)N1[C@H](C)CN(c2cc(-n3cnc(Nc4ccc(NC(=O)N(C)C)cc4)n3)ccn2)C[C@@H]1C [Compound I-77, 3-(4-{1-[2-(4-Acetyl-3,5-dimethyl-piperazin-1-yl)-pyridin-4-yl]-1H-[1,2,4]triazol-3-ylamino}-phenyl)-1,1-dimethyl-urea]	> 1000 nM	< 60 nM
COC(=O)Nc1ccc(Nc2ncn(-c3ccnc(N4C[C@@H](C)N(C(C)=O)[C@@H](C)C4)c3)n2)cc1 [Compound I-78]	> 1000 nM	< 60 nM
CC(=O)N1[C@H](C)CN(c2cc(-n3cnc(Nc4ccc(NC(=O)C(F)(F)F)cc4)n3)ccn2)C[C@@H]1C [Compound I-79]	> 1000 nM	< 60 nM
CC(=O)N1[C@H](C)CN(c2cc(-n3cnc(Nc4ccc(NC(=O)c5cccs5)cc4)n3)ccn2)C[C@@H]1C [Compound I-80]	> 1000 nM	< 60 nM
CC(=O)N1[C@H](C)CN(c2cc(-n3cnc(Nc4ccc(NC(=O)c5ccco5)cc4)n3)ccn2)C[C@@H]1C [Compound I-81, Furan-2-carboxylic acid (4-{1-[2-(4-acetyl-3,5-dimethyl-piperazin-1-yl)-pyridin-4-yl]-1H-[1,2,4]triazol-3-ylamino}-phenyl)-amide]	> 1000 nM	< 60 nM
CC(=O)N1[C@H](C)CN(c2cc(-n3cnc(Nc4ccc(N)cc4)n3)ccn2)C[C@@H]1C [Compound I-82]	> 1000 nM	< 60 nM
CC(=O)N1[C@H](C)CN(c2cc(-n3cnc(Nc4ccc(N5CCOCC5)cc4)n3)ccn2)C[C@@H]1C [Compound I-85, 1-(2,6-Dimethyl-4-{4-[3-(4-morpholin-4-yl-phenylamino)-[1,2,4]triazol-1-yl]-pyridin-2-yl}-piperazin-1-yl)-ethanone]	> 1000 nM	30 to 200 nM
CCCOC(=O)Nc1ccc(Nc2ncn(-c3ccnc(N4C[C@@H](C)N(C(C)=O)[C@@H](C)C4)c3)n2)cc1 [Compound I-88]	> 1000 nM	30 to 200 nM
CC(=O)N1[C@H](C)CN(c2cc(-n3cnc(Nc4ccc(NC(=O)OC(C)C)cc4)n3)ccn2)C[C@@H]1C [Compound I-89]	> 1000 nM	30 to 200 nM

Compound	Ki [1]	Ki [2]
CC(=O)N1[C@H](C)CN(c2cc(-n3cnc(Nc4ccc(NC(=O)OCC(C)C)cc4)n3)ccn2)C[C@@H]1C [Compound I-90]	> 1000 nM	30 to 200 nM
CC(=O)N1[C@H](C)CN(c2cc(-n3cnc(Nc4ccc(NC(=O)OCC(C)(C)C)cc4)n3)ccn2)C[C@@H]1C [Compound I-91]	> 1000 nM	30 to 200 nM
CC(=O)N1[C@H](C)CN(c2cc(-n3cnc(Nc4ccc(N5CCN(S(=O)(=O)c6ccc(C)cc6)CC5)cc4)n3)ccn2)C[C@@H]1C [Compound I-92]	> 1000 nM	30 to 200 nM
O=C(CC1CCCC1)Nc1cc(-n2cnc(Nc3ccccc3)n2)ccn1 [Compound I-94, 2-Cyclopentyl-N-[4-(3-phenylamino-[1,2,4]triazol-1-yl)-pyridin-2-yl]-acetamide]	< 500 nM	1 to 30 nM
O=C(CCc1ccccc1)Nc1cc(-n2cnc(Nc3ccccc3)n2)ccn1 [Compound I-95]	< 500 nM	1 to 30 nM
O=C(Cc1ccccc1)Nc1cc(-n2cnc(Nc3ccccc3)n2)ccn1 [Compound I-96]	< 500 nM	1 to 30 nM
CC(=O)N1[C@H](C)CN(c2cc(-n3cnc(Nc4ccc(N5CCN(C(=O)OC(C)(C)C)CC5)cc4)n3)ccn2)C[C@@H]1C [Compound I-97, 4-(4-{1-[2-(4-Acetyl-3,5-dimethyl-piperazin-1-yl)-pyridin-4-yl]-1H-[1,2,4]triazol-3-ylamino}-phenyl)-piperazine-1-carboxylic acid tert-butyl ester]	> 1000 nM	1 to 30 nM
CCNC(=O)Nc1ccc(Nc2ncn(-c3ccnc(N4C[C@@H](C)N(C(C)=O)[C@@H](C)C4)c3)n2)cc1 [Compound I-98, 1-(4-{1-[2-(4-Acetyl-3,5-dimethyl-piperazin-1-yl)-pyridin-4-yl]-1H-[1,2,4]triazol-3-ylamino}-phenyl)-3-ethyl-urea]	> 1000 nM	1 to 30 nM
CCCNC(=O)Nc1ccc(Nc2ncn(-c3ccnc(N4C[C@@H](C)N(C(C)=O)[C@@H](C)C4)c3)n2)cc1 [Compound I-99]	> 1000 nM	1 to 30 nM
CC(=O)N1[C@H](C)CN(c2cc(-n3cnc(Nc4ccc(NC(=O)NC(C)C)cc4)n3)ccn2)C[C@@H]1C [Compound I-100]	> 1000 nM	1 to 30 nM
CC(=O)N1[C@H](C)CN(c2cc(-n3cnc(Nc4ccc(NC(=O)NC(C)(C)C)cc4)n3)ccn2)C[C@@H]1C [Compound I-101]	> 1000 nM	30 to 200 nM
CC(C)(C)CC(=O)Nc1cc(-n2cnc(Nc3ccccc3)n2)ccn1 [Compound I-102]	> 1000 nM	1 to 30 nM
c1ccc(-n2cnc(Nc3ccnc(N4CCOCC4)c3)n2)cc1 [Compound I-105]	> 1000 nM	1 to 30 nM
c1ccc(-n2cnc(Nc3ccc(N4CCOCC4)cc3)n2)cc1 [Compound I-106]	> 1000 nM	30 to 200 nM
c1ccc(-n2cnc(Nc3ccnc(NCCN4CCOCC4)c3)n2)cc1 [Compound I-107]	> 1000 nM	30 to 200 nM
